Values after ≈ are worked out from the molar mass of the structure shown. Like-named read-outs stand apart in the source and are kept apart here.
How the values were obtained:
antibody 144A = experiment: MPA radioimmunoassay, specificity of antibody 144A; assay type: binding, rabbit
From the text: Antibody 144A was raised in rabbits against 17-hydroxyprogesterone-3-0-carboxymethyloxime-BSA. The labeled steroid used in the radioimmunoassay (RIA) was methyl-17α-hydroxyprogesterone acetate, 6α-[1,2-^3 H(N)]- obtained from NEN (CAT NO: NET 480) while the reference preparation was medroxyprogesterone acetate (MPA) obtained from Steraloids. The assay buffer used was 0.1% gelatin in 0.1M sodium phosphate, 0.15M sodium chloride, 0.1% sodium azide, pH 7.2. The extraction solvent mixture was ethyl ether-acetone (9:1, v:v) [EEA] while the LH-20 chromatography solvent mixture was iso-octane: toluene: methanol (90:5:5;v:v:v) [IOTH].
One ml of plasma was extracted twice with 5 ml of EEA. The extracts were evaporated to dryness with nitrogen and the remaining residue was dissolved in one ml of IOTH. The extracts were then subjected to LH-20 chromatography on […] columns (Coming CAT NO: 05 722A) filled with 2 g of LH-20 (Pharmacia). The gel was washed with 30 ml of IOTH before addition of one ml of sample and elution with IOTH. The first 6 ml were discarded. The following 10, 16.5 and 27.5 ml of eluent were fraction I (progesterone), II (MPA) and III (17-LH-progesterone), respectively. Fraction II was evaporated to dryness and reconstituted in 1.5 ml of assay buffer.
To each 12 x 75 mm borosilicate test tube was added: 0.2 ml containing 25,000 DPM of tritiated steroid, 0.5 ml of reference preparation ranging from 5 to 5000 pg/tube or 0.5 ml of extracted sample fraction II, 0.2 ml of antiserum 144A diluted 1/5000 or 0.2 ml of assay buffer to account for non specific binding. The tubes were then incubated overnight at 4° C. Then, 0.2 ml 2% charcoal Norit-A, 0.2% Dextran T-70 diluted in water was added. The tubes were then shaken gently and, after 10 min, they were centrifuged at 2000 x g for 10 min. The supernatant was mixed with 8 ml of Formula-989 (NEN: NEF-989) and the radioactivity was counted in a β-counter.

[1] = Stability to gamma sterilization (SEC, viscosity); assay type: physicochemical; conditions: 2.2 Megarads
From the text: FIGS. 10A and 10B show, in (A), "the variation of the different parameters" [M(n-1), Mn, Mw, Mz,M(z+1)] characteristics of the molecular mass of 50:50 poly[DL-lactide-co-glycolide] following exposure to the indicated levels of gamma irradiation (Mrad); and, in (B), the variation of the polydensity (Mw/Mn) versus the level of gamma irradiation (Mrad).
Before injection, the microspheres were sterilized by exposure to 2.2 Megarads of gamma radiation achieved with a Cobalt-60 source (Gammacell 200). The stability of MPA was checked by steric exclusion chromatography (SEC) while the stability of the polymer was analyzed by SEC using polystyrene standards for calibration and by the modification of the relative viscosity using a Ubbelohde capillary viscometer.
Samples of batch MPA-MB-V have been exposed to different amounts of gamma radiation (0,1.1, 2.2 Megarads) and the molecular mass distribution parameters [M(n-1), Mn, Mw, Mz, M(z+1)] (see FIG. 10A) as well as their polydispersity (Mw/Mn) (FIG. 10B) were measured.

[2] = system: ZR-75-1 human breast cancer cells; conditions: cited from earlier work
breast cancer = conditions: high doses, unselected breast cancer patients; cited from earlier work
endometriosis = conditions: high dose, 6 months, cited from earlier work
kidney = conditions: mouse, in vivo; cited from earlier work
ventral prostate = conditions: rat, in vivo; cited from earlier work
pituitary AR [3] = conditions: rat, in vivo; cited from earlier work
pituitary AR [4] = conditions: in vivo; cited from earlier work
[5] = cited from earlier work
[6] = system: estrogen binding in the endometrium; conditions: oral, follicular phase; cited from earlier work
endometrial cancer = conditions: high dose; cited from earlier work
bone resorption = conditions: in vivo; cited from earlier work
bone [7] = conditions: in vivo; cited from earlier work
bone [8] = conditions: cited from earlier work
bone [9] = conditions: in vivo; cited from earlier work; remark: listed apart in the source
[10] = system: hypocalcemic effect of calcitonin; conditions: castrated rats; cited from earlier work
masculinizing activity = conditions: low blood concentrations; cited from earlier work

## CC(=O)O[C@]1(C(C)=O)CC[C@H]2[C@@H]3C[C@H](C)C4=CC(=O)CC[C@]4(C)[C@H]3CC[C@@]21C [MPA, 6-alpha-methyl,17-alpha-acetoxy progesterone]
Antibody 144A; MPA radioimmunoassay
  ED50 value (RIA): 0.315 ng/mL (≈ 0.815 nM)
[1]
  stability to gamma radiation: does not damage MPA
[2]
  concentration of maximal inhibitory action on human breast cancer cell growth: 1 nM
  dose required for glucocorticoid action relative to maximal growth inhibition: approximately 1000 fold
  mechanism of growth inhibition of ZR-75-1 cells: mainly due to the androgenic properties of the compound
Breast cancer
  overall clinical response rate: 40%
endometriosis; placebo 6%
  partial resolution: 13 % of subjects
endometriosis; placebo 12%
  resolution of the disease: 50 % of the patients
kidney
  androgenic activity: exhibits androgenic activity
Ventral prostate
  androgenic activity: exhibits androgenic activity
Pituitary AR [3]
  effect on gonadotropin secretion: inhibitory effect
Pituitary AR [4]
  effect on gonadotropin secretion: inhibitory effect
[5]; acne, hirsutism
  virilizing symptoms: seldom causes significant virilizing symptoms
[5]; human, in vivo
  adrenal function: Suppression of adrenal function
  glucocorticoid-like side effects: Cushingoid syndrome, euphoria and subjective pain relief
[6]
  level of estrogen binding in the endometrium: decrease in the level of estrogen binding
Endometrial cancer
  treatment of endometrial cancer: successfully used
  treatment of endometrial carcinoma compared with Tamoxifen: success similar to that of Tamoxifen

## CCCCCCCCCC(=O)O[C@H]1CC[C@H]2[C@@H]3CCC4=CC(=O)CC[C@@H]4[C@H]3CC[C@]12C [nandrolone decanoate]
Bone resorption
  bone resorption: reduced bone resorption
Bone [7]
  bone mass: increased bone mass
  bone resorption, osteoporotic women: reduced bone resorption

## C[C@]12CC[C@H]3[C@@H](CCC4=CC(=O)CC[C@@]43C)[C@@H]1CC[C@@H]2O [testosterone]
Antibody 144A
  cross-reactivity with antibody 144A: less than 0.1%
Bone [8]; hypogonadal males
  bone histomorphometry: increases in relative osteoid volume, total osteoid surface, linear extend of bone formation and bone mineralization
Bone [8]; in vivo
  nitrogen, calcium and phosphate balance: positive nitrogen, calcium and phosphate balance
  osteoid surfaces and beam width: increase osteoid surfaces and beam width
Bone [8]; men with primary hypogonadism
  bone formation: increases bone formation
Bone [9]
  overall quantity of bone: increases the overall quantity of bone
[10]
  hypocalcemic effect of calcitonin: increases the hypocalcemic effect of calcitonin
Masculinizing activity
  masculinizing activity: considerable masculinizing activity even at low blood concentrations
